Results from patent US10675267B2, “Methods for detection and eradication of myeloid leukemia stem cells” (priority 2015, dated 2020).
Entries after “also recorded” stand apart in the source; their conditions may differ.

Legend:
[1] = system: AML LSC (CD34+ cells from AML primary samples); assay: SL/M2 stromal co-culture with colony formation (survival) and replating (self-renewal) assays, AML; type: cell-based, human; conditions: two weeks SL/M2 co-culture, 0.1-10 μM, versus DMSO
Description: (§1) In hypothesis-driven experiments, the splicing modulatory compound 17S-FD-895 was tested to determine efficacy in altering splicing activity in cell lines, and to evaluate effects on AML LSC survival and self-renewal capacity in humanized bone marrow stromal co-cultures and in PRIMAGRAFT™ AML LSC models. Cell culture experiments were performed using 293T and sAML (MOLM-13) cell lines, and SL and M2 bone marrow stromal cell lines. Animal studies were performed using immunocompromised Rag2−/−γc−/−[20] or NOD/SCID-IL2RG mice (Jackson Laboratory, Bar Harbor, Me.). Primary AML and normal control samples were used in in vitro hematopoietic stem and progenitor assays after bone marrow stromal co-culture and treatment with splicing modulatory compounds (FD-895 or 17S-FD-895) or vehicle control (DMSO). Colony formation potential and self-renewal capacity were assessed by counting colony numbers (survival) after two weeks of growth in semi-solid (methylcellulose) media, and subsequent replating capacity (self-renewal) was assessed after transfer to fresh methylcellulose for an additional two weeks of culture. Three primary AML samples were utilized to establish PRIMAGRAFT™ models in immunocompromised mice, and mice engrafted with cells from two of these models (AML-37 and AML-08) were treated with 17S-FD-895 or vehicle (DMSO) to evaluate changes in AML LSC survival and self-renewal capacity in vivo. Data were collected by flow cytometry and qRT-PCR analysis of CD34-selected human LSC-enriched cells from engrafted mice.
(§2) Bone marrow SL/M2 monolayers were established from freshly inactivated (irradiated) cells and then human CD34^+ cells selected from AML primary samples (n=8) and normal controls (CD34^+ cells from cord blood, CB, n=6; or aged bone marrow, n=6) were added. Survival and self-renewal of the CD34+ cells were investigated by methylcellulose-based colony and replating assays. Two SF3B1-targeted splicing modulators, FD-895 or 17S-FD-895, were added at the initiation of co-culture at concentrations ranging from 0.1 to 10 μM.
Mouse bone marrow stromal cell lines (SL and M2 mycoplasma-free authenticated cells obtained from ATCC) expressing human interleukin-3 (IL-3), stem cell factor (SCF) and granulocyte-colony stimulating factor (G-CSF), which support erythroid and myeloid cell expansion and differentiation, were maintained under standard culture conditions, as previously described. Briefly, SL cells were grown in complete medium containing DMEM (Corning), 10% FBS, 1% Glutamax, and 1% penicillin-streptomycin (Life Technologies), while M2 cells were grown in complete medium containing RPMI, 10% FBS, 1% Glutamax, and 1% penicillin-streptomycin (all from Life Technologies). Every four passages, cells were selected by addition of G418 and hygromycin to the culture media for one passage (3-4 days), to maintain human cytokine expression. All cell lines were maintained in T-25 or T-75 culture flasks and were passaged at dilutions of 1:5-1:10 every 2-4 days. Low passage aliquots of cells were thawed every two months to ensure consistency of experiments.
(§3) As previously described (Goff et al., 2013), humanized bone marrow SL/M2 monolayers were inactivated (irradiated) and then human CD34^+ cells selected from AML primary samples and normal controls were added for two weeks of co-culture, followed by methylcellulose-based colony and replating assays. FD-895 or 17S-FD-895 were added at the initiation of co-culture, with DMSO as a vehicle control.
Mouse bone marrow stromal cell lines (SL and M2 mycoplasma-free authenticated cells obtained from ATCC) expressing human interleukin-3 (IL-3), stem cell factor (SCF) and granulocyte-colony stimulating factor (G-CSF), which support erythroid and myeloid cell expansion and differentiation (Hogge et al., 1996), were maintained under standard culture conditions, as previously described (Goff et al., 2013). […]

[2] = system: CD34+ cells from normal aged bone marrow; assay: SL/M2 stromal co-culture with colony and replating assays, normal bone marrow; type: cell-based, human; conditions: normal aged bone marrow samples
Description: as §1, §2, §3

SMILES: CCC(OC)C(C)C1OC1C(O)C(C)/C=C/C=C(\C)C1OC(=O)CC(O)CCC(C)(O)C(OC(C)=O)/C=C/C1C (stereo not shown) [FD-895, reference compound]
- AML LSC self-renewal (colony replating) [1]: dose-dependent reduction; also recorded: reduced AML LSC self-renewal
- AML LSC survival (colony formation) [1]: dose-dependent reduction; also recorded: reduced AML LSC survival
- erythroid colony formation and self-renewal [2]: not significantly changed; also recorded: no effect on erythroid colonies
- granulocyte-macrophage (myeloid) colony survival [2]: slight decrease; also recorded: reduces myeloid colony formation
